According to article PMC10328743, “5-Nitro-3-(2-(4-phenylthiazol-2-yl)hydrazineylidene)indolin-2-one derivatives inhibit HIV-1 replication by a multitarget mechanism of action” (Frontiers in Cellular and Infection Microbiology, 2023):
Where two headings read alike, the source gives them in different places.

Legend:
HIV-1 RT-associated RDDP = biological target: T1, HIV-1 RT-associated RDDP (Human immunodeficiency virus type 1 group M subtype B, UniProt P04585); test: HIV-1 RNA-dependent DNA polymerase activity determination; assay type: biochemical
T1 construct: The 1:1 ratio between the p66/p51 subunits was also verified; His tag (implied only by Ni-NTA IMAC purification); made in house; host or cells: Escherichia coli M15
Description: (§1) Escherichia coli strain M15 containing the p6HRT-prot vector (provided by Stuart Le Grice laboratory (NCI Frederick)) was grown to an optical density at 600 nm of 0.7 and induced with 1.7 mM of isopropyl β-D-1-thiogalactopyranoside (IPTG) for 4 h. Protein purification was carried out with a BioLogic LP system (Bio-Rad, Hercules, CA, USA) using a combination of immobilized metal affinity chromatography (IMAC) and ion exchange chromatography. Cell pellets were resuspended in lysis buffer (50 mM of sodium phosphate buffer, pH 7.8, containing 0.5 mg/mL of lysozyme), incubated on ice for 20 min, and, after the addition of NaCl to a final concentration of 0.3 M, were sonicated and centrifuged at 30,000 ×g for 1 h. The supernatant was loaded onto a Ni^2+-NTA-Sepharose column pre-equilibrated with loading buffer (50 mM of sodium phosphate buffer, pH 7.8, containing 0.3 M of NaCl, 10% glycerol, and 10 mM of imidazole) and washed thoroughly with wash buffer (50 mM of sodium phosphate buffer, pH 6.0, containing 0.3 M of NaCl, 10% glycerol, and 80 mM of imidazole). RT was eluted with an imidazole gradient in the wash buffer (0–0.5 M). Fractions were collected, and protein purity was checked by sodium dodecyl sulfate–polyacrylamide gel electrophoresis (SDS-PAGE) and found to be higher than 90%. The 1:1 ratio between the p66/p51 subunits was also verified. Enzyme-containing fractions were pooled and diluted 1:1 with 50 mM of sodium phosphate buffer, pH 7.0, containing 10% glycerol, and then loaded into a Hi-trap heparin HP GE (Healthcare LifeScience) pre-equilibrated with 10 column volumes of loading buffer (50 mM of sodium phosphate buffer, pH 7.0, containing 10% glycerol, and 150 mM of NaCl). The column was then washed with loading buffer, and the RT was eluted with Elute Buffer 2 (50 mM of sodium phosphate, pH 7.0, 10% glycerol, 1 M of NaCl). Fractions were collected, and the protein was dialyzed and stored in a buffer containing 50 mM of Tris-HCl, pH 7.0, 25 mM of NaCl, 1 mM of EDTA, and 50% glycerol. Catalytic activities and protein concentrations were determined. Enzyme-containing fractions were pooled, and aliquots were stored at −80°C.
RDDP activity was measured as previously reported in 25-µl volume containing 60 mM of Tris‐HCl buffer, pH 8.1, 8 mM of MgCl2, 60 mM of KCl, 13 mM of DTT, 2.5 µM of poly(A)-oligo(dT), 100 µM of dTTP, increasing concentrations of inhibitors, whose dilution were made in water, and different amounts of enzymes according to a linear range of the dose–response curve. The reaction mixture was incubated for 30 min at 37°C and then stopped by the addition of EDTA. Reaction products were detected by pico green addition and measured with a multilabel counter plate reader Victor 3, equipped with filters for 502/523 nm.

[1] = Viability of infected MT4 cells (cytotoxicity); assay type: cell-based; details: human, MT4 cells infected with HIV-1; infected MT4 cells viability; three independent experiments, average ± standard deviation
Description: (§2) HIV-1 replication was carried out in MT4 cells as previously reported ([Corona et al., 2016a]) using a molecular clone derived from the pNL4-3 ([Thierry et al., 2015]). A total of 120 ng of p24^gag antigen per 10^6 cells, corresponding to a multiplicity of infection (m.o.i.) of 0.3, was used for infection. […] Flow cytometry analysis was performed on a FACSCalibur flow cytometer (BD Biosciences, San Jose, CA, USA), and the results were analyzed using the […] software.

HIV-1 = HIV-1 replication inhibition in MT4 cells; assay type: cell-based; details: Human immunodeficiency virus 1, MT4, viral replication in MT4 cells; three independent experiments, average ± standard deviation; read-out: HIV-1 EC50
Description: as §2

[2] = biological target: T2, HIV-1 RT-associated RNase H (Human immunodeficiency virus type 1 group M subtype B, UniProt P04585); test: HIV-1 DNA polymerase-independent RNase H activity determination; assay type: biochemical; details: wt HIV-1 RT, three independent experiments, average ± standard deviation; for IC50: read-out: RNase H IC50
T2 construct: The 1:1 ratio between the p66/p51 subunits was also verified; His tag (implied only by Ni-NTA IMAC purification); made in house; host or cells: Escherichia coli M15
Description: as §1
HIV RT-associated RNase H activity was measured as described ([Corona et al., 2016b]) in a 100-µl reaction volume containing 50 mM of Tris-HCl buffer, pH 7.8, 6 mM of MgCl2, 1 mM of dithiothreitol (DTT), 80 mM of KCl, 0.25 µM of hybrid RNA/DNA 5′-[…]-Fluorescin-3′ (high-performance liquid chromatography (HPLC), dry, QC: Mass Check) (available from Metabion) 5′-Dabcyl-[…]-3′ (HPLC, dry, QC: Mass Check), increasing concentrations of inhibitors, whose dilution were made in water, and different amounts of enzymes according to a linear range of the dose–response curve. The reaction mixture was incubated for 1 h at 37°C and stopped by the addition of EDTA, and products were measured with a multilabel counter plate reader Victor 3 equipped with filters for 490/528 nm.

[3] = wt HIV-1 RT, three independent experiments, average ± standard deviation, read-out: RDDP IC50

Row | Structure (SMILES) | IC50 (HIV-1 RT-associated RDDP; [3]) | CC50 [1] | EC50 (HIV-1) | IC50 [2] | IC50 (HIV-1 RT-associated RDDP) | RNase H IC50 [2]
1 | O=C1Nc2ccc(Cl)cc2/C1=N/Nc1nc(-c2ccccc2)cs1 [12b] | 9.4 ± 1.1 µM | 70 ± 5 µM | > 70 µM | 5.4 ± 0.6 µM | – | –
2 | Cn1c(-c2ccccc2)cs/c1=N\N=C1/C(=O)Nc2ccc([N+](=O)[O-])cc21 [12c] | 8.1 ± 0.1 µM | 10 ± 1.2 µM | > 10 µM | 3.6 ± 0.8 µM | – | –
3 | O=C1Nc2ccc(Cl)cc2/C1=N/Nc1nc(-c2ccc(Br)cc2)cs1 [3b] | 8.3 ± 0.6 µM | 95 ± 14 µM | > 95 µM | 4.4 ± 0.1 µM | – | –
4 | O=C1Nc2ccc([N+](=O)[O-])cc2/C1=N/Nc1nc(-c2ccccc2)cs1 [12a] | – | > 100 µM | > 100 µM | 6 ± 1 µM | 13 ± 2 µM | –
5 | Cn1c(-c2ccc(Cl)c(Cl)c2)cs/c1=N\N=C1/C(=O)Nc2ccc([N+](=O)[O-])cc21 [9c] | 15.1 ± 0.5 µM | 5 ± 1.3 µM | > 5 µM | 1.9 ± 0.7 µM | – | –
6 | O=C1Nc2ccc([N+](=O)[O-])cc2/C1=N/Nc1nc(-c2ccc(Cl)c(Cl)c2)cs1 [9a] | 11.5 ± 0.5 µM | > 100 µM | > 100 µM | 6.5 ± 0.5 µM | – | –
7 | COc1ccc(-c2cs/c(=N\N=C3/C(=O)Nc4ccc([N+](=O)[O-])cc43)n2C)cc1 [11c] | 11.2 ± 2.2 µM | 2 ± 0.4 µM | > 2 µM | 4 ± 1.4 µM | – | –
8 | O=C1Nc2ccc(Cl)cc2/C1=N/Nc1nc(-c2ccc(F)cc2F)cs1 [7b] | 10 ± 1 µM | – | – | 6 ± 1.5 µM | – | –
9 | Cn1c(-c2ccc(C#N)cc2)cs/c1=N\N=C1/C(=O)Nc2ccc([N+](=O)[O-])cc21 [6c] | 12.1 ± 1.6 µM | – | – | 100 ± 5 µM | – | active only toward the RDDP function
10 | O=C1Nc2ccc(Cl)cc2/C1=N/Nc1nc(-c2ccc([N+](=O)[O-])cc2)cs1 [4b] | 14.9 ± 2.7 µM | 50 ± 12 µM | > 50 µM | 15.3 ± 1.5 µM | – | –
11 | COc1ccc(-c2csc(N/N=C3\C(=O)Nc4ccc(Cl)cc43)n2)cc1 [11b] | 16.2 ± 2.8 µM | 70 ± 9 µM | > 70 µM | 7 ± 1 µM | – | –
12 | O=C1Nc2ccc([N+](=O)[O-])cc2/C1=N/Nc1nc(-c2ccc(F)cc2)cs1 [2a] | 9.5 ± 0.5 µM | > 100 µM | > 100 µM | 5.1 ± 2 µM | – | –
13 | Cc1ccc(-c2cs/c(=N\N=C3/C(=O)Nc4ccc([N+](=O)[O-])cc43)n2C)cc1 [10c] | 16.9 ± 2.3 µM | 10 ± 2.7 µM | > 10 µM | 6.8 ± 1.4 µM | – | –
14 | N#Cc1ccc(-c2csc(N/N=C3\C(=O)Nc4ccc(Cl)cc43)n2)cc1 [6b] | 34 ± 6 µM | 95 ± 5 µM | > 95 µM | 7.8 ± 0.1 µM | – | –
15 | Cn1c(-c2cccc([N+](=O)[O-])c2)cs/c1=N\N=C1/C(=O)Nc2ccc([N+](=O)[O-])cc21 [8c] | 8.7 ± 1.5 µM | – | – | 100 ± 20 µM | – | active only toward the RDDP function
16 | Cn1c(-c2ccc(Br)cc2)cs/c1=N\N=C1/C(=O)Nc2ccc([N+](=O)[O-])cc21 [3c] | 19.5 ± 3.3 µM | 25 ± 3.1 µM | > 25 µM | 7.7 ± 1.2 µM | – | –
